Measurements as given in patent US10800791B2, “Triazole ACC inhibitors and uses thereof” (Gilead Apollo, LLC, priority 2015, dated 2020).
Values after ≈ are worked out from the molar mass of the structure shown. Like-named read-outs stand apart in the source and are kept apart here.

How the values were obtained:
human (hACC2) = human (hACC2) (Homo sapiens, UniProt O00763); assay: In vitro ACC inhibition assay (ADP-Glo), hACC2; type: biochemical; details: Table 2b, additional results, 5 nM ACC2, 20 μM ATP, 20 μM acetyl-CoA
Protocol: The detailed procedure is as follows. […] 10 μL ADP glo reagent was added. […] 20 μL kinase detection reagent was added.

C. albicans = assay: Antifungal Activity Assay (broth microtiter MIC), C. albicans; type: cell-based, Candida albicans; details: Candida albicans, ATCC90028, 48 h
Summary of the method: (§1)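 CLSI M27-A3 broth microdilution in RPMI 1640+MOPS, final inoculum 2.5×10^3 CFU/mL from overnight Sabouraud cultures grown at 35 °C. MIC read visually at 48 h against growth control.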

C. krusei = assay: Antifungal Activity Assay (broth microtiter MIC), C. krusei; type: cell-based, Candida krusei; details: Pichia kudriavzevii, ATCC6258, 48 h
Summary of the method: as §1

C. parapsilosis = assay: Antifungal Activity Assay (broth microtiter MIC), C. parapsilosis; type: cell-based, Candida parapsilosis; details: Lodderomyces parapsilosis, ATCC22019, 48 h
Summary of the method: as §1

Botrtyis cinerea (Bc) = assay: Growth inhibition assay of fungal pathogens, Bc; type: cell-based; details: 48 h, growth inhibition at 48 hours vs 2% DMSO control
Summary of the method: (§2)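 Spores diluted in 17% V8 liquid media and incubated with compound at final 50, 10, 2 ppm or 2, 0.4, 0.08 ppm (2% DMSO). OD600 plus visual ratings at 24 and 48 hours, blank-subtracted; percent growth inhibition from 48 h readings relative to 2% DMSO control.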

[1] = tested on: Collectotrichum graminicola (Cg); assay: Growth inhibition assay of fungal pathogens, Cg; type: cell-based; details: 48 h, growth inhibition at 48 hours vs 2% DMSO control
Summary of the method: as §2

Diplodia maydis (Dm) = assay: Growth inhibition assay of fungal pathogens, Dm; type: cell-based; details: Stenocarpella maydis, 48 h, growth inhibition at 48 hours vs 2% DMSO control
Summary of the method: as §2

[2] = tested on: Fusarium moniliforme (Fm); assay: Growth inhibition assay of fungal pathogens, Fm; type: cell-based; details: Fusarium verticillioides, 48 h, read-out: Concentration at 90% Inhibition Fm
Summary of the method: as §2

[3] = tested on: Fusarium virguliforme (Fv); assay: Growth inhibition assay of fungal pathogens, Fv; type: cell-based; details: 48 h
Summary of the method: as §2

[4] = tested on: Phytophthora capsici (Pc); assay: Growth inhibition assay of fungal pathogens, Pc; type: cell-based; details: 48 h
Summary of the method: as §2

Rhizoctonia solani (Rs) = assay: Growth inhibition assay of fungal pathogens, Rs; type: cell-based; details: 48 h
Septoria tritici (St) = assay: Growth inhibition assay of fungal pathogens, St; type: cell-based; details: Zymoseptoria tritici, 48 h, growth inhibition at 48 hours vs 2% DMSO control
Summary of the method: as §2

fungal (fACC2) = fungal (fACC2) (UniProt Q00955); details: read-out: fACC2 (in vitro ACC2 Inhibition Assay, IC50); Table 2b, additional results; ADP-Glo, 5 nM ACC2, 20 μM ATP, 20 μM acetyl-CoA
Protocol: An exemplary procedure for the in vitro ACC inhibition assay, which can be used to determine the inhibitory action of compounds of the invention toward either human (hACC2) or fungal (fACC2), follows. The ADP-Glo™ Kinase Assay kit from Promega was used. The ADP-Glo™ Kinase Assay is a luminescent ADP detection assay to measure enzymatic activity by quantifying the amount of ADP produced during an enzyme reaction. The assay is performed in two steps; first, after the enzyme reaction, an equal volume of ADP-Glo™ Reagent is added to terminate the reaction and deplete the remaining ATP. Second, the Kinase Detection Reagent is added to simultaneously convert ADP to ATP and allow the newly synthesized ATP to be measured using a luciferase/luciferin reaction. Luminescence can be correlated to ADP concentrations by using an ATP-to-ADP conversion curve. […] 50 μL of the compound being tested (600 μM in DMSO) was added to a 384-well dilution plate. The compound was diluted 1:3 in succession in DMSO for each row for 11 wells. 0.5 μL ACC2 working solution was added to 384-well white Optiplate assay plate. 0.5 μL diluted compound solution in each column from step 2 was added to assay plate, each row containing 2 replicates. […] The plates were incubated at room temperature for 15 minutes. 5 μL substrate working solution was added to each well to initiate reaction. Final ACC2 reaction concentrations consist of: 5 nM ACC2, 20 μM ATP, 20 μM acetyl-CoA, 12 mM NaHCO3, 0.01% Brij35, 2 mM DTT, 5% DMSO, test compound concentrations: 30 μM, 10 μM, 3.33 μM, 1.11 μM, 0.37 μM, 0.123 μM, 0.0411 μM, 0.0137 μM, 0.00457 μM, 0.00152 μM, and 0.00051 μM. Plates were incubated at room temperature for 60 minutes. 10 μL ADP glo reagent was added. Plates were incubated at room temperature for 40 minutes. 20 μL kinase detection reagent was added. Plates were incubated at room temperature for 40 minutes, and then read on a Perkin Elmer EnVision 2104 plate reader for luminescence as Relative Light Units (RLU).
Data for each concentration, as well as the positive and negative controls were averaged, and the standard deviation calculated. Percent inhibition was calculated by the formula: 100×(average negative control−compound)/(average negative control−average positive control). The IC50 for each compound was calculated by fitting the data with a non-linear regression equation: Y=Bottom+(Top−Bottom)/(1+10 ((Log IC50−X)*HillSlope)), where X is the log of compound concentration and Y is percent inhibition.

[5] = read-out: MIC, C. albicans ATCC 90028, Table 3b (additional results), 3 replicates, MIC recorded at 48 h
[6] = read-out: MIC, C. krusei ATCC 6258, Table 3b (additional results), 3 replicates, MIC recorded at 48 h
[7] = read-out: MIC, C. parapsilosis ATCC 22019, Table 3b (additional results), 3 replicates, MIC recorded at 48 h
[8] = read-out: Concentration at 90% Inhibition Bc, Botrtyis cinerea
[9] = read-out: Concentration at 90% Inhibition Cg, Collectotrichum graminicola
[10] = read-out: Concentration at 90% Inhibition Dm, Diplodia maydis
[11] = read-out: Concentration at 90% Inhibition Fv, Fusarium virguliforme, growth inhibition at 48 hours vs 2% DMSO control
[12] = read-out: Concentration at 90% Inhibition Pc, Phytophthora capsici, growth inhibition at 48 hours vs 2% DMSO control
[13] = read-out: Concentration at 90% Inhibition Rs, Rhizoctonia solani, mycelial plugs, growth inhibition at 48 hours vs 2% DMSO control
[14] = read-out: Concentration at 90% Inhibition St, Septoria tritici
[15] = Table 3b (additional results), ATCC 90028, 3 replicates, MIC recorded at 48 h, read-out: MIC, C. albicans ATCC 90028
[16] = Table 3b (additional results), ATCC 6258, 3 replicates, MIC recorded at 48 h, read-out: MIC, C. krusei ATCC 6258
[17] = Table 3b (additional results), ATCC 22019, 3 replicates, MIC recorded at 48 h, read-out: MIC, C. parapsilosis ATCC 22019
[18] = Botrtyis cinerea, read-out: Concentration at 90% Inhibition Bc
[19] = Collectotrichum graminicola, read-out: Concentration at 90% Inhibition Cg
[20] = Diplodia maydis, read-out: Concentration at 90% Inhibition Dm
[21] = Fusarium moniliforme, growth inhibition at 48 hours vs 2% DMSO control
[22] = growth inhibition at 48 hours vs 2% DMSO control, read-out: Concentration at 90% Inhibition Fv
[23] = growth inhibition at 48 hours vs 2% DMSO control, read-out: Concentration at 90% Inhibition Pc
[24] = mycelial plugs, growth inhibition at 48 hours vs 2% DMSO control, read-out: Concentration at 90% Inhibition Rs
[25] = Septoria tritici, read-out: Concentration at 90% Inhibition St

fungal (fACC2), sequence (Q00955 whole entry): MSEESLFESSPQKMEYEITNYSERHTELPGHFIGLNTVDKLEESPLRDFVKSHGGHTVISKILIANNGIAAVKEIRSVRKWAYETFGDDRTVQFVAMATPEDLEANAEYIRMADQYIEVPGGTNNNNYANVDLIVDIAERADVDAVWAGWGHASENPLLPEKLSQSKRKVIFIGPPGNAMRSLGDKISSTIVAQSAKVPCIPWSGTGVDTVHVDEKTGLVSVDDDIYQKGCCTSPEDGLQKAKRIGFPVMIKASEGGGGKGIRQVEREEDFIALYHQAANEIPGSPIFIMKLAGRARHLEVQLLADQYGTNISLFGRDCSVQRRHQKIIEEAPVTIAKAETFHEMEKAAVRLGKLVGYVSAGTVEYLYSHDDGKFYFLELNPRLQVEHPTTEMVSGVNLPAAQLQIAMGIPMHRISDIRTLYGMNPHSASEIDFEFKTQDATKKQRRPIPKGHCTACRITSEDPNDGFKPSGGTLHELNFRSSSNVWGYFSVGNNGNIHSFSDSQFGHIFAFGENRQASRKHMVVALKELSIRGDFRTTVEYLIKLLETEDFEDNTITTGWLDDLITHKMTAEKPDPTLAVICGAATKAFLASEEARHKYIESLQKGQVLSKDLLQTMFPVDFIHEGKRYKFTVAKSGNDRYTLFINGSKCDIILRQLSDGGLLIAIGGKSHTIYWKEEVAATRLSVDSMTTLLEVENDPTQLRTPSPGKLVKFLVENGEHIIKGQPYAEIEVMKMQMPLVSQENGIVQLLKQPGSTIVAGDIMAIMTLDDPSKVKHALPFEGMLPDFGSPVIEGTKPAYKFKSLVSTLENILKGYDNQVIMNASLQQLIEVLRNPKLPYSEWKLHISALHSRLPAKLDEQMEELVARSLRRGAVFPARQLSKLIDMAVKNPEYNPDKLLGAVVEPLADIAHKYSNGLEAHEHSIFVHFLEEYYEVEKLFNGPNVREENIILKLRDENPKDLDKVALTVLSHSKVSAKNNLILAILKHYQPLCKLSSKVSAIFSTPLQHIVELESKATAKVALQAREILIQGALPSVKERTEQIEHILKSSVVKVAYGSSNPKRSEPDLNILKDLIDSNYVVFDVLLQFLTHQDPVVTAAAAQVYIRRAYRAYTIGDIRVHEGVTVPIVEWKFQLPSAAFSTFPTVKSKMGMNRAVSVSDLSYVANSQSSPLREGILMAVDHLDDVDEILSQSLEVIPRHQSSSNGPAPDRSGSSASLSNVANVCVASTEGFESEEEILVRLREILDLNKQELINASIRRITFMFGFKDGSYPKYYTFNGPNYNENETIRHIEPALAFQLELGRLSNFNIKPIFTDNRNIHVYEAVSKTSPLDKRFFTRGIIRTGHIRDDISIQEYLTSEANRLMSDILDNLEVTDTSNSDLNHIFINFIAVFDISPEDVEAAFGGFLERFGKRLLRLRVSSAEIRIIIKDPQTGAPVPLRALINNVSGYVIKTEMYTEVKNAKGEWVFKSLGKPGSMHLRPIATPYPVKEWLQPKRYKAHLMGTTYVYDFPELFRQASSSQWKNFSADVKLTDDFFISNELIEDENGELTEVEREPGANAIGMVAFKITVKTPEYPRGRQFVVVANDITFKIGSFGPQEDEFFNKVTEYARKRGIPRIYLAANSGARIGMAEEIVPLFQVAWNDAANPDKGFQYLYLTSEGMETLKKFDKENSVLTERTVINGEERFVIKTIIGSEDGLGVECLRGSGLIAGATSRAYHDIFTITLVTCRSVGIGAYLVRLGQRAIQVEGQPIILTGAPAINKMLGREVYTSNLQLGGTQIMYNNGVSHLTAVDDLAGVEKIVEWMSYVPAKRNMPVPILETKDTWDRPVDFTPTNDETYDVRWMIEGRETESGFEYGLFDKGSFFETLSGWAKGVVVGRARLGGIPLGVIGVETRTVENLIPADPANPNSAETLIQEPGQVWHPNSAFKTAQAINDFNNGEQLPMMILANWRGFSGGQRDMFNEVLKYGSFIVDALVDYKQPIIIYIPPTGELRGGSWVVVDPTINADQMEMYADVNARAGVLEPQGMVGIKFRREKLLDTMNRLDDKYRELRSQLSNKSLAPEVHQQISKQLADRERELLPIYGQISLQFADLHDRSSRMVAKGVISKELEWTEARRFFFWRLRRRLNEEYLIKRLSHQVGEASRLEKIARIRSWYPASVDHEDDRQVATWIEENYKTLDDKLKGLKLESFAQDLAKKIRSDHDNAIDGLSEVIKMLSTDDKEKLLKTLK
human (hACC2), sequence (O00763 whole entry): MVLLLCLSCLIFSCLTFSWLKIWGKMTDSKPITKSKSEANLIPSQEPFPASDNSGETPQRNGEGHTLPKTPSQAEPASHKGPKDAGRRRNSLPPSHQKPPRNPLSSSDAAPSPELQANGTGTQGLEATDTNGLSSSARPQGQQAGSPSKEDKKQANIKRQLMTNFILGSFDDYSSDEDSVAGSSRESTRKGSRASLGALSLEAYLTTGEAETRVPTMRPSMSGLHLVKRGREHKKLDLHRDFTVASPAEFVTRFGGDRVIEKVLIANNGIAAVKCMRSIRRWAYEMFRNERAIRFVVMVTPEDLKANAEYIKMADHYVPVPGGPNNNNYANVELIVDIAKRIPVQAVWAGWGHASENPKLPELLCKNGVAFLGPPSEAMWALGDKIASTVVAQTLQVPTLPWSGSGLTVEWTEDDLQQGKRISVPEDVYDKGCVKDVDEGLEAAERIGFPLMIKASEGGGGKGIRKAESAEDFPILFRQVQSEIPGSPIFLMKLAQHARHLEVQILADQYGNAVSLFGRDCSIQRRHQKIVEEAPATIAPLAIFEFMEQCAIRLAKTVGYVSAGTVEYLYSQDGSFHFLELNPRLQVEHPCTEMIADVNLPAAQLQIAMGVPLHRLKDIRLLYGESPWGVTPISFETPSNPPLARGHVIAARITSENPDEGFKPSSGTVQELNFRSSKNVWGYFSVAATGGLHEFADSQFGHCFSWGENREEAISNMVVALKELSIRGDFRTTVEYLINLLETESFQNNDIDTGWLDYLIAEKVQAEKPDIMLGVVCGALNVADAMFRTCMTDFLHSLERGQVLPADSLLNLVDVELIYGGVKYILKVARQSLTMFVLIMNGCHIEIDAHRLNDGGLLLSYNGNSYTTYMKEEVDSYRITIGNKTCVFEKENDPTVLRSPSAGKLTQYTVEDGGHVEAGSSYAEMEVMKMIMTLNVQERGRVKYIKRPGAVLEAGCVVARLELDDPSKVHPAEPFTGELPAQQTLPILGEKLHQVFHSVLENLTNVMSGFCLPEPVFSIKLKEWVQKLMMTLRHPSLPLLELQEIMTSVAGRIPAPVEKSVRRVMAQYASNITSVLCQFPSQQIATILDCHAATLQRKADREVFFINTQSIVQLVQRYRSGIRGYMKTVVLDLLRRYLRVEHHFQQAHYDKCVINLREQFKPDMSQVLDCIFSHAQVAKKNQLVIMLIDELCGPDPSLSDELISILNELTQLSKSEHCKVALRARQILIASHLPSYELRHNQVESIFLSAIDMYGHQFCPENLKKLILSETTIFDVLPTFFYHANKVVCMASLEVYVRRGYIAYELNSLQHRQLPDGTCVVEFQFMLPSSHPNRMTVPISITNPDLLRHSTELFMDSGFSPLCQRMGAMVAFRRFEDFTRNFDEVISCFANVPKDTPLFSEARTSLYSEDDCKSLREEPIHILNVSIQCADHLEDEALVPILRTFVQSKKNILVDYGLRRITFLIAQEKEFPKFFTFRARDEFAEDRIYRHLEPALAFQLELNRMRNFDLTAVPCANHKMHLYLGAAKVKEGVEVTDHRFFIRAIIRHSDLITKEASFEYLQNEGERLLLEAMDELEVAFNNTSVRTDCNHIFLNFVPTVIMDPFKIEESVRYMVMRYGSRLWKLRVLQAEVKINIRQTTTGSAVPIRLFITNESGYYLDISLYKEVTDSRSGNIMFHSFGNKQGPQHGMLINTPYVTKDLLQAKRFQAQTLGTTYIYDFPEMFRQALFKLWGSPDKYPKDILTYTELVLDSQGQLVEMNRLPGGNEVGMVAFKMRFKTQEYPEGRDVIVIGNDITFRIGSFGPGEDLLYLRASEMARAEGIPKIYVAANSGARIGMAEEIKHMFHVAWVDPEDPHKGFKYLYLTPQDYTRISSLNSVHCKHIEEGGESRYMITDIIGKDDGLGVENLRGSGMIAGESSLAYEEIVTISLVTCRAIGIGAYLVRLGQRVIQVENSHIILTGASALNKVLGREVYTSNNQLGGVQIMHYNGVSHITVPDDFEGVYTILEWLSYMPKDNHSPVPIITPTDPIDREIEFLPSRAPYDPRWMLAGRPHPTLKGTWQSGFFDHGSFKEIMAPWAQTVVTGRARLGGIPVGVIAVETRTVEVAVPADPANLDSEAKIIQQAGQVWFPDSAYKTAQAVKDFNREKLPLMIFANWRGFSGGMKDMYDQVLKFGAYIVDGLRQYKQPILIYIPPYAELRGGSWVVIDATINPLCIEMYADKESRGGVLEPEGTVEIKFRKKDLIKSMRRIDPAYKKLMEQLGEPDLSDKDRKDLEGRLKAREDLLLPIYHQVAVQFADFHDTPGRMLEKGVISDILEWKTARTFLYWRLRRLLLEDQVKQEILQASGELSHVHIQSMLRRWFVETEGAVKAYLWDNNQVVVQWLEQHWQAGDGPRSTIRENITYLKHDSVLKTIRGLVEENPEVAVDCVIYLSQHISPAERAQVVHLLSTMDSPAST

COc1ccc(F)cc1[C@H](Cn1c(=O)n(C(C)(C)C(=O)NC(C)C)c(=O)c2c(C)c(-n3nccn3)sc21)O[C@H]1CC[C@@H](O)CC1 [Compound I-216]
IC50 (human (hACC2)): 5 to 10 nM | MIC (C. albicans; [5]): 0.25 to 1 µg/mL (≈ 0.389 to 1.56 µM) | MIC (C. krusei; [6]): 0.06 to 0.249 µg/mL (≈ 0.0933 to 0.387 µM) | MIC (C. parapsilosis; [7]): 0.25 to 1 µg/mL (≈ 0.389 to 1.56 µM) | IC90 (Botrtyis cinerea (Bc); [8]): 0.4 µg/mL (≈ 0.622 µM) | IC90 [1, 9]: 2 µg/mL (≈ 3.11 µM) | IC90 (Diplodia maydis (Dm); [10]): 2 µg/mL (≈ 3.11 µM) | IC90 [2]: 0.08 µg/mL (≈ 0.124 µM) | IC90 [3, 11]: 0.4 µg/mL (≈ 0.622 µM) | IC90 [4, 12]: > 50 µg/mL | IC90 (Rhizoctonia solani (Rs); [13]): 0.08 µg/mL (≈ 0.124 µM) | IC90 (Septoria tritici (St); [14]): > 50 µg/mL | IC50 (fungal (fACC2)): 0.3 to 1 nM

COc1ccccc1[C@H](Cn1c(=O)n(C(C)(C)C(=O)NC(C)C)c(=O)c2c(C)c(-n3nccn3)sc21)O[C@H]1CC[C@@H](O)CC1 [Compound I-217]
IC50 (human (hACC2)): 5 to 10 nM | MIC (C. albicans; [5]): 0.25 to 1 µg/mL (≈ 0.4 to 1.6 µM) | MIC (C. krusei; [6]): 0.06 to 0.249 µg/mL (≈ 0.096 to 0.399 µM) | MIC (C. parapsilosis; [7]): 0.25 to 1 µg/mL (≈ 0.4 to 1.6 µM) | IC90 (Botrtyis cinerea (Bc); [8]): 0.4 µg/mL (≈ 0.64 µM) | IC90 [1, 9]: 2 µg/mL (≈ 3.2 µM) | IC90 (Diplodia maydis (Dm); [10]): 2 µg/mL (≈ 3.2 µM) | IC90 [2]: 0.08 µg/mL (≈ 0.128 µM) | IC90 [3, 11]: 0.4 µg/mL (≈ 0.64 µM) | IC90 [4, 12]: > 50 µg/mL | IC90 (Rhizoctonia solani (Rs); [13]): 0.08 µg/mL (≈ 0.128 µM) | IC90 (Septoria tritici (St); [14]): > 50 µg/mL | IC50 (fungal (fACC2)): 0.3 to 1 nM

COc1ccc(F)cc1[C@H](Cn1c(=O)n(C(C)(C)C(=O)NC(C)C)c(=O)c2c(C)c(-n3nccn3)sc21)OCCC(=O)NO [Compound I-218]
IC50 (human (hACC2)): 10 to 40 nM | MIC (C. albicans; [5]): 0.25 to 1 µg/mL (≈ 0.396 to 1.58 µM) | MIC (C. krusei; [6]): 0.25 to 1 µg/mL (≈ 0.396 to 1.58 µM) | MIC (C. parapsilosis; [7]): 0.25 to 1 µg/mL (≈ 0.396 to 1.58 µM) | IC90 (Botrtyis cinerea (Bc); [8]): 2 µg/mL (≈ 3.17 µM) | IC90 [1, 9]: 10 µg/mL (≈ 15.8 µM) | IC90 (Diplodia maydis (Dm); [10]): 10 µg/mL (≈ 15.8 µM) | IC90 [2]: 2 µg/mL (≈ 3.17 µM) | IC90 [3, 11]: 2 µg/mL (≈ 3.17 µM) | IC90 [4, 12]: > 50 µg/mL | IC90 (Rhizoctonia solani (Rs); [13]): 2 µg/mL (≈ 3.17 µM) | IC90 (Septoria tritici (St); [14]): > 50 µg/mL | IC50 (fungal (fACC2)): 1 to 5 nM

Cc1c(-n2nccn2)sc2c1c(=O)n(C(C)(C)C(=O)NC1CCC1)c(=O)n2C[C@H](OC(C)C)c1cc(F)ccc1OCC#N [Compound I-221]
IC50 (human (hACC2)): 5 to 10 nM | MIC (C. albicans; [5]): 1.01 to 2 µg/mL (≈ 1.62 to 3.21 µM) | MIC (C. krusei; [6]): 0.25 to 1 µg/mL (≈ 0.401 to 1.6 µM) | MIC (C. parapsilosis; [7]): 0.25 to 1 µg/mL (≈ 0.401 to 1.6 µM) | IC90 (Botrtyis cinerea (Bc); [8]): 0.4 µg/mL (≈ 0.641 µM) | IC90 [1, 9]: 2 µg/mL (≈ 3.21 µM) | IC90 (Diplodia maydis (Dm); [10]): 2 µg/mL (≈ 3.21 µM) | IC90 [2]: 0.08 µg/mL (≈ 0.128 µM) | IC90 [3, 11]: 0.4 µg/mL (≈ 0.641 µM) | IC90 [4, 12]: > 50 µg/mL | IC90 (Rhizoctonia solani (Rs); [13]): 0.4 µg/mL (≈ 0.641 µM) | IC90 (Septoria tritici (St); [14]): > 50 µg/mL | IC50 (fungal (fACC2)): 0.3 to 1 nM

Cc1c(-n2nccn2)sc2c1c(=O)n(C(C)(C)C(=O)NC(C)C)c(=O)n2C[C@H](O[C@H]1CC[C@@H](O)CC1)c1cc(F)ccc1OCC#N [Compound I-222]
IC50 (human (hACC2)): 5 to 10 nM | MIC (C. albicans; [5]): 0.25 to 1 µg/mL (≈ 0.374 to 1.5 µM) | MIC (C. krusei; [6]): 0.25 to 1 µg/mL (≈ 0.374 to 1.5 µM) | MIC (C. parapsilosis; [7]): 0.25 to 1 µg/mL (≈ 0.374 to 1.5 µM) | IC90 (Botrtyis cinerea (Bc); [8]): 2 µg/mL (≈ 3 µM) | IC90 [1, 9]: 2 µg/mL (≈ 3 µM) | IC90 (Diplodia maydis (Dm); [10]): 0.4 µg/mL (≈ 0.599 µM) | IC90 [2]: 0.08 µg/mL (≈ 0.12 µM) | IC90 [3, 11]: 2 µg/mL (≈ 3 µM) | IC90 [4, 12]: > 50 µg/mL | IC90 (Rhizoctonia solani (Rs); [13]): 0.4 µg/mL (≈ 0.599 µM) | IC90 (Septoria tritici (St); [14]): > 50 µg/mL | IC50 (fungal (fACC2)): 0.3 to 1 nM

COc1ccc(C#N)cc1[C@H](Cn1c(=O)n(C(C)(C)C(=O)NC(C)C)c(=O)c2c(C)c(-n3nccn3)sc21)OCC(C)(C)C#N [Compound I-223]
IC50 (human (hACC2)): 10 to 40 nM | MIC (C. albicans; [15]): 0.25 to 1 µg/mL (≈ 0.395 to 1.58 µM) | MIC (C. krusei; [16]): 0.25 to 1 µg/mL (≈ 0.395 to 1.58 µM) | MIC (C. parapsilosis; [17]): 1.01 to 2 µg/mL (≈ 1.6 to 3.16 µM) | IC90 (Botrtyis cinerea (Bc); [18]): 10 µg/mL (≈ 15.8 µM) | IC90 [1, 19]: > 50 µg/mL | IC90 (Diplodia maydis (Dm); [20]): > 50 µg/mL | IC90 [2, 21]: 0.4 µg/mL (≈ 0.632 µM) | IC90 [3, 22]: 10 µg/mL (≈ 15.8 µM) | IC90 [4, 23]: > 50 µg/mL | IC90 (Rhizoctonia solani (Rs); [24]): 2 µg/mL (≈ 3.16 µM) | IC90 (Septoria tritici (St); [25]): > 50 µg/mL | IC50 (fungal (fACC2)): 1 to 5 nM

COc1ccc(Br)cc1[C@H](Cn1c(=O)n(C(C)(C)C(=O)NC(C)C)c(=O)c2c(C)c(-n3nccn3)sc21)OCC(C)(C)C#N [Compound I-224]
IC50 (human (hACC2)): 5 to 10 nM | MIC (C. albicans; [15]): 0.25 to 1 µg/mL (≈ 0.364 to 1.46 µM) | MIC (C. krusei; [16]): 0.25 to 1 µg/mL (≈ 0.364 to 1.46 µM) | MIC (C. parapsilosis; [17]): 1.01 to 2 µg/mL (≈ 1.47 to 2.91 µM) | IC90 (Botrtyis cinerea (Bc); [18]): 0.4 µg/mL (≈ 0.583 µM) | IC90 [1, 19]: 2 µg/mL (≈ 2.91 µM) | IC90 (Diplodia maydis (Dm); [20]): 2 µg/mL (≈ 2.91 µM) | IC90 [2, 21]: 0.08 µg/mL (≈ 0.117 µM) | IC90 [3, 22]: 0.4 µg/mL (≈ 0.583 µM) | IC90 [4, 23]: > 50 µg/mL | IC90 (Rhizoctonia solani (Rs); [24]): > 50 µg/mL | IC90 (Septoria tritici (St); [25]): > 50 µg/mL | IC50 (fungal (fACC2)): 1 to 5 nM
